Laboratory results taken from patent US20160067247A1, “NOVEL USE” (GlaxoSmithKline Intellectual Property (No.2) Limited, priority 2012, published 2016).

What was measured:
[1] = system: AKT phosphorylation; assay: AKT phosphorylation in cells (macrophages) isolated from IPF BALF, MSD assay (Example 1); type: cell-based; details: Homo sapiens, Macrophage, 25 min; macrophages isolated from n=3 IPF BALFs; 25 minutes incubation; geometric mean (95% CI 0.28-1.08 nM); read-out: IC50 for inhibition of AKT phosphorylation
From the text: (§1) Phosphorylation of AKT is widely accepted as an indication of PI3-kinase activity, and is utilised here to obtain an IC50 for the effect of 2,4-difluoro-N-{2-(methyloxy)-5-[4-(4-pyridazinyl)-6-quinolinyl]-3-pyridinyl}benzenesulfonamide on primary human lung fibroblasts isolated from the IPF patients, in addition to macrophages isolated from IPF bronchoalveolar lavage (BALF).
In similar experiments, inhibition of AKT phosphorylation by 2,4-difluoro-N-{2-(methyloxy)-5-[4-(4-pyridazinyl)-6-quinolinyl]-3 pyridinyl}benzenesulfonamide is assessed in cells isolated from IPF BALF. Briefly, BAL cells are resuspended in 0.1% BSA RPMI media to a cell provide a cell count of 5.7×10^4-8.3×10^4 cells per well. BAL cells are added to a 96 well plate and incubated with a range of 2,4-difluoro-N-{2-(methyloxy)-5-[4-(4-pyridazinyl)-6-quinolinyl]-3 pyridinyl}benzenesulfonamide (0.1% DMSO and 0.1% BSA final concentration in the assay). After 25 minutes incubation at 37° C., 5% CO2 the plate is spun for 5 min at 1600 rpm. The supernatants are decanted and 40 μl of phosphosafe lysis buffer containing protease inhibitors is added to each well. The plate is then snap frozen in liquid nitrogen and stored at −80° C. prior to further analysis. Following thawing on ice, cell lysates are transferred onto phospho Akt, total Akt Meso Scale Discovery (MSD) capture plates and processed as described above.

[2] = system: AKT phosphorylation (Ser 473); assay: FCS induced AKT phosphorylation (Ser473) in IPF primary human lung fibroblasts, MSD assay (Example 1); type: cell-based; details: Fibroblast, 0.5 h, fibroblasts from n=4 IPF lungs, 10% FCS, 30 minutes, geometric mean (95% CI 0.83-8 nM), read-out: IC50 for inhibition of FCS induced AKT phosphorylation
Description: as §1
Fibroblasts are seeded in 96 well plates at a density of 10,000 cells per well. Following 24 hours of serum starvation, fibroblasts are pre-incubated for 15 minutes in serum free buffer containing a range of concentrations of 2,4-difluoro-N-{2-(methyloxy)-5-[4-(4-pyridazinyl)-6-quinolinyl]-3-pyridinyl}benzenesulfonamide (50 μl volumes per well, comprising 1:10 dilutions of inhibitor ranging from [3×10^−12M] to [3×10^−7M] in serum free DMEM). Fibroblasts are stimulated by the addition of foetal calf serum (FCS) to a final volume of 10%. 30 minutes after stimulation, supernatants are rapidly decanted, and the cell plate placed on ice. 35 μl of 1× Complete Lysis buffer is added to each well and incubated for 10 minutes at 4° C., and stored at −80° C. prior to further analysis. […] The assay protocol is completed as per manufacturer's instructions and plates analysed on an MSD SECTOR Imager. Data are read out as the % of total AKT phosphorylated at position Ser473.

COc1ncc(-c2ccc3nccc(-c4ccnnc4)c3c2)cc1NS(=O)(=O)c1ccc(F)cc1F [2,4-difluoro-N-{2-(methyloxy)-5-[4-(4-pyridazinyl)-6-quinolinyl]-3-pyridinyl}benzenesulfonamide]
IC50 [1]: 0.54 nM
IC50 [2]: 2.58 nM
